Experimental findings from patent US20260199499A1, “ANTI-PDL1 ANTIBODY-DRUG CONJUGATE AND USE” (SHANGHAI HENLIUS BIOTECH, INC., priority 2023, published 2026) are described below.

In general, TGI refers to the reduction of tumour growth relative to the control group. Lower therefore signals little slowing of growth.

For series [1], the system named is human PDL1-positive colorectal cancer LD1-2013-362125 PDX. Kind of series: Anti-tumor effect, LD1-2013-362125 PDX xenograft. The class given is in vivo, NU/NU mice. Conditions: free loaded drug, dose not given, day 31. The protocol:
(§1) A human-derived PDL1-positive colorectal cancer LD1-2013-362125 model was revived in NU/NU mice. Once the tumor had grown to 500-800 mm^3, the tumor tissue was surgically aseptically excised, and non-tumor tissues and necrotic tissues were removed. The tumor tissue was stripped and evenly cut into tissue blocks (about 25-35 mg) of about 3 mm×3 mm×3 mm in size, and then, which were inoculated subcutaneously on the right side of NU/NU mice. Once the average tumor volume of the mice for grouping reached 156.99 mm3, the mice were grouped randomly according to the size of the tumor volume, ensuring similar tumor volumes between groups. The day of grouping was defined as day 0. After the start of dosing, the body weight and tumor size of the mice were measured twice a week, and the mice were dosed once a week, for three doses. Clinical symptoms observed during the experiment were recorded. The tumor volume was calculated according to the following formula: tumor volume (mm3)=½×(a×b2) (wherein a represented the long diameter, and b represented the short diameter).

Series [2] concerns human PDL1-positive cervical cancer LD1-0010-200614 PDX. As to the kind of experiment: Anti-tumor effect, LD1-0010-200614 PDX xenograft. The class given is in vivo, Balb/c nude mice. Conditions: free loaded drug, dose not given, day 35. The protocol: as §1, with “cervical” for “colorectal”, “LD1-0010-200614” for “LD1-2013-362125”, “Balb/c nude” for “NU/NU”, “146.74” for “156.99”

The test system of series [3] is human PDL1-positive gastric cancer LD1-0017-200636 PDX. As to the kind of experiment: Anti-tumor effect, LD1-0017-200636 PDX xenograft. The class given is in vivo, NU/NU mice. The following applies: free loaded drug, dose not given, day 21. Here is the method: as §1, with “gastric” for “colorectal”, “LD1-0017-200636” for “LD1-2013-362125”, “30-60” for “25-35”, “138.70” for “156.99”

For a further series, the system named is human macrophages. The class given is cell-based. The protocol:
(§2) Since some human immune cells such as antigen-presenting cells (macrophages, dendritic cells, etc.) express PDL1, the immunotoxicity of PDL1-targeted antibody-conjugated drugs is an inevitable problem. Human dendritic cells and macrophages, after induced differentiation, were digested and viable cells were counted using Vi-Cell XR cytometer. The cell suspension was adjusted to an appropriate concentration with a culture medium. 80 μl/well of the cell suspension was added to a cell culture plate, which was supplemented with 500 IU/mL of IFN-γ. The test drug was diluted with a gradient (5-fold dilutions). 20 μl of each of the diluted test articles was taken and added to the cell suspension in the cell culture plate, and the cell culture plate was placed in an incubator and cultured for 96 hours. 50 μl/well of a CellTiter-Glo solution (purchased from Promega) that had been thawed in advance and equilibrated to room temperature was added according to CellTiter-Glo operation instructions. The wells were mixed uniformly with a microwell plate shaker for 2 minutes and maintained at room temperature for 10 minutes. The […] signal was measured using Envision 2104 plate reader. SGN-PDL1V was used as one of the control molecules and was disclosed in U.S. Patent No. US 20210101982 A1.

The subject of another series is human dendritic cells. The class given is cell-based. Here is the method: as §2
Series [4] in a line: Preliminary pre-experiment, toxicity to mice. The class given is in vivo. The following applies: dose of 8 mg/kg. The text has this:
For ethical considerations, the […] was not set in the experimental design.

Series [5] has as its system human non-small cell lung cancer LU6437 PDX. Kind of series: Anti-tumor effect, LU6437 PDX xenograft. The class given is in vivo, BALB/c nude mice. The following applies: 3 mg/kg, once a week for three doses, day 21. The protocol:
A revived tumor tissue was harvested from HuPrime® lung cancer xenograft model LU6437 tumor-bearing mice and cut into tumor blocks with a diameter of 2-3 mm, which were inoculated subcutaneously at the right anterior scapula of BALB/c nude mice. […] The average volume was 253.70 mm^3 in the actual groups. The day of grouping was defined as day 0. After the start of dosing, the mice were dosed once a week, for three doses, and the body weight and tumor size of the mice were measured twice a week. Clinical symptoms observed during the experiment were recorded. The tumor volume was calculated according to the following formula: tumor volume (mm3)=½×(a×b2) (wherein a represented the long diameter, and b represented the short diameter).

Series [6] deals with T1, PDL1 on PDL1-positive cells NCI-H292 and NCI-H441 (UniProt Q9NZQ7 19-290, limits assumed).
T1 construct: whole, on cells; Human tumor cell lines; also called CD274; B7-H1
Kind of series: flow cytometry on NCI-H292 cells, goat anti-human IgG detection. (In general: A flow cytometer gives signals particle by particle.)

T1 sequence (Q9NZQ7 19-290 limits assumed): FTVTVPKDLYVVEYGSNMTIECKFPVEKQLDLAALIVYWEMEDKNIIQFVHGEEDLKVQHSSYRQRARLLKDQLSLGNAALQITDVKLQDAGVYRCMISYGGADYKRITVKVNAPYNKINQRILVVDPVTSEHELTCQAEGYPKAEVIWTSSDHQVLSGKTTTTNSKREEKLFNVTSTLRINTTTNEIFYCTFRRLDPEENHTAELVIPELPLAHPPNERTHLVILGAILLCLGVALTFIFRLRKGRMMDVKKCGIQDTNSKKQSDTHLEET

On to `CC[C@@]1(O)C(=O)OCc2c1cc1n(c2=O)Cc2c-1nc1cc3c(cc1c2CCCO)OCO3` [A1.3, (S)-7-ethyl-7-hydroxy-14-(3-hydroxypropyl)-10,13-dihydro-11H-[1,3]dioxolo[4,5-g]pyrano[3′,4′,6,7]indolizino[1,2-b]quinoline-8,11(7H)-dione], for which the values for the inhibition of tumour growth (TGI) in series [1], in series [2] and in series [3] were 37.16%, 56.5% and 34.12%, respectively.
With “SGN-PDL1V: reference ADC of WO 2021067776 A1: SGN-PDL1V antibody moiety conjugated to MC-VC-PABC-MMAE [reference compound]”, the “concentration at which non-specific killing resulted” value in the series with human macrophages and in the series with human dendritic cells was “above 20 nM” each time. Besides, the toxicity to mice entry in series [4] is listed as “severely lethal toxicity”. The inhibition of tumour growth (TGI) in series [5] was determined as 24.11%.

B1: MAB20 (antibody, human IgG1, lambda, N297A, V domains shown)
VH: EVQLVQSGGGLVKPGGSLRLSCAASGFTFSSYTMNWVRQAPGKGLEWVSSISSGSDYLYYADSVKGRFTISRDNAKNSLYLQMNSLRAEDTAVYYCARNELRWYPQAGAFDRWGQGTMVTVSS
VL: QSVVTQPPSMSAAPGQRVTISCSGSSSYIESSYVGWYQQLPGTAPRLLIYDDDMRPSGIPDRFSGSKSGTSATLAITGLQTGDEADYYCEIWRSGLGGVFGGGTKLTVLS
notes: also called anti-PDL1 antibody MAB20; Anti-PDL1_mAb
As for B1, the binding result in series [6] is reported as “binds”.
